# System: S. aureus
# Experiment: Sandwich ELISA readout of growth-dependent metabolic labeling (biotin-D-lysine probe incorporation) +/- antibiotic
# Format: cell-based, Staphylococcus aureus
# Details: S. aureus +/- vancomycin; FIG. 4
# Procedure: FIG. 4. ELISA can be used as a rapid readout for antibiotic susceptibility. S. aureus was incubated+/−antibiotic for 20 min then with cell envelope probe for an additional 10 min. Probe incorporation was quantitated by sandwich ELISA (absorbance, OD450).
# Bacterial strains and growth conditions. Staphylococcus aureus was grown in brain heart infusion broth (BHI; BD BBL, Sparks, MD.). Escherichia coli K-12 was grown in Luria Bertani broth (LB; Apex Research Products, El Cajon, CA). All bacteria were initially grown by shaking at 37° C. overnight.
# Cell wall labeling. Bacterial cultures were back diluted in their respective media and grown at 37° C. until the mid-log phase (OD600=0.3 for S. aureus; OD600=0.35 for E. coli); for concentration dependency experiments the starting OD600 for each sample varied. Where appropriate, cultures were treated with freshly prepared ampicillin (100 μg/mL; Fisher Bioreagents, Fair Lawn, NJ) or vancomycin (100 μg/mL; Alfa Aesar, Ward Hill, MA) and incubated on a shaker at 37° C. for 90 minutes.
# Growing bacteria were labeled with biotin D-lysine (Chem-Impex International, Wood Dale, IL; reagent was deprotected first). Unless otherwise indicated, they were labeled with 1 mM biotin-D-lysine shaking at 37° C. for 20 (S. aureus) or 30 (E. coli) minutes. […]
# ELISA experiment. […] The absorbance was measured at 450 nm with a BioTek Plate Reader.
smiles,measurement,value
CN[C@H](CC(C)C)C(=O)N[C@H]1C(=O)N[C@@H](CC(N)=O)C(=O)N[C@H]2C(=O)N[C@H]3C(=O)N[C@H](C(=O)N[C@H](C(=O)O)c4cc(O)cc(O)c4-c4cc3ccc4O)[C@H](O)c3ccc(c(Cl)c3)Oc3cc2cc(c3O[C@@H]2O[C@H](CO)[C@@H](O)[C@H](O)[C@H]2O[C@H]2C[C@](C)(N)[C@H](O)[C@H](C)O2)Oc2ccc(cc2Cl)[C@H]1O [vancomycin],"ELISA readout of probe incorporation (absorbance, OD450) with versus without antibiotic",can discriminate between S. aureus+/−vancomycin

# Reference: patent publication US20250002970A1, “A[…] LABELING FOR DETECTION OF BACTERIAL VIABILITY, GROWTH AND ANTIBIOTIC SUSCEPTIBILITY” (University of Massachusetts, priority 2021, published 2025)
